Measured values reported in patent EP2716638A1, “Labeled ligands of the oxytocyn receptor” (Université de Strasbourg, priority 2012, dated 2014).

How the values were obtained:
[1] = test system: cAMP accumulation; assay: cAMP accumulation functional assay (agonist and antagonist mode); assay type: cell-based
[2] = biological target: T1, V1aR (Homo sapiens, UniProt P37288); assay: TR-FRET (HTRF) saturation binding assay on SNAP-tag labeled receptor in cells; details: saturation with fluorescent ligand; mean ± SEM of three independent experiments in triplicate; read-out: Binding, HTRF (Kd, nM) V1a
T1 construct: expressed in transfected cells; host or cells: HEK 293T (printed for the general protocol, whose plasmid sentence names only the V2 receptor)
T1 sequence (P37288 whole entry): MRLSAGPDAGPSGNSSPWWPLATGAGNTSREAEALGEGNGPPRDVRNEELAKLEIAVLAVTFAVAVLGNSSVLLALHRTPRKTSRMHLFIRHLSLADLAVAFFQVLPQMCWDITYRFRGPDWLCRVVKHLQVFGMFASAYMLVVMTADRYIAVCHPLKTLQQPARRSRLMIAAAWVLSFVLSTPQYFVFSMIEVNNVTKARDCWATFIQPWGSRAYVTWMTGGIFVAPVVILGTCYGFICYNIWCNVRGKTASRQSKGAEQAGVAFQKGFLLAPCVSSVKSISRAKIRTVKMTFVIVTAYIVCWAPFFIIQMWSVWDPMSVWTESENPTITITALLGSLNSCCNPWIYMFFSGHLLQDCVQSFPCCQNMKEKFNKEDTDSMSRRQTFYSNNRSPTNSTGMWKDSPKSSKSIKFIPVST
Description: (§1) These assays were performed as described in Zwier et al (Journal of Biomolecular Screening 2010, 15, 1248-1259). Briefly, HEK 293T cells were cultivated in DMEM medium supplemented with 10% foetal calf serum (FCS) and 1% penicillin/streptomycin antibiotics. Confluent cells were dissociated and electroporated with plasmid DNA coding for the V2 receptor fused to the SNAP-tag suicide enzyme. Transfected cells were then plated in black 96-well plates previously coated with poly-ornithine (diluted at 0.1 mg.mL^-1 in sterile water, incubated 30 min at 37°C, washed with sterile PBS). Plates were incubated in supplemented DMEM medium for 48h à 37°C, […] and 5% CO2. Expressed receptors fused to SNAPtag were then labeled with fluorescent substrates, either with a donor (SNAP-Lumi4-Tb) or an acceptor (SNAP-RED) at respectively 100 or 300 nM in 100 µL of Tag-lite® labeling medium, for 1 h at 37 °C. Cells were then washed 3 times in Tag-lite medium and then incubated with the fluorescent ligands. For saturation assays, increasing concentrations of fluorescent ligands were diluted in 100 µL of Tag-lite medium. For competition assays, a fixed concentration of fluorescent ligand (typically 20 nM) was mixed with an increasing concentration of cold competitor ligand (in this case AVP) in Tag-lite medium. After overnight incubation at 4 °C (to prevent any internalization phenomenon), plates were read in an HTRF®-compatible multi-well plate reader with a classic HTRF® protocol (excitation at 340 nm, donor emission measured at 620 nm and acceptor emission at 665 nm, 50 µs delay, 500 µs integration).
(§2) Fluorescent compounds 21 to 24 were involved in the development of a TR-FRET based assay for both V1aR and OTR. Such technique usually offers a higher signal-to-noise ratio than classic FRET because of the long-lasting fluorescence of the lanthanide cryptate. TR-FRET based saturation experiments with fluorescent compounds 21 to 24 were performed on V1a, OT and V2 receptors labeled with the SNAP-tag® approach: cells expressing a receptor of interest fused to SNAP-tag are incubated in the presence of a fluorescent substrate to label the receptor. Cells were then incubated in the presence of increasing concentrations of a fluorescent ligand. Fluorophores of the SNAP-tag substrates and of the ligands are chosen to be compatible with time-resolved FRET. SNAP-tagged receptors were labeled either with a Lumi4-Tb donor (SNAP-Lumi4-Tb) or d2 acceptor (SNAP-red) depending on the nature of the ligands, either acceptor (21, 22) or donor (23, 24). Saturation curves were obtained when plotting specific FRET signal as a function of fluorescent compounds concentration; non-specific binding was determined in the presence of an excess of the unlabeled corresponding ligands (10 µM) (Figure 1).

[3] = biological target: T2, V2 receptor (Homo sapiens, UniProt P30518); assay: as above; details: saturation with fluorescent ligand; mean ± SEM of three independent experiments in triplicate
T2 construct: expressed in transfected cells; host or cells: HEK 293T
T2 sequence (P30518 whole entry): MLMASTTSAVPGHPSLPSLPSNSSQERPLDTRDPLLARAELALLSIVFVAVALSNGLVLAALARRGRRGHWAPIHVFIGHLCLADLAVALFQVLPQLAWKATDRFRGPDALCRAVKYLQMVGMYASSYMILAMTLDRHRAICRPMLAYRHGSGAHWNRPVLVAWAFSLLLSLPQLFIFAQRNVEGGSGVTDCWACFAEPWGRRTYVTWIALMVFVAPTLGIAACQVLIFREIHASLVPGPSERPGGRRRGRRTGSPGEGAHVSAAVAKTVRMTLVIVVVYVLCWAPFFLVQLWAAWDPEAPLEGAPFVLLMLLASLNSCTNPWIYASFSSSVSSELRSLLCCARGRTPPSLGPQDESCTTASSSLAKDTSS
Description: as §1, §2

[4] = biological target: T3, OTR (Homo sapiens, UniProt P30559); assay: as above; details: saturation with fluorescent ligand; mean ± SEM of three independent experiments in triplicate; read-out: Binding, HTRF (Kd, nM) OT
T3 construct: expressed in transfected cells; host or cells: HEK 293T (printed for the general protocol, whose plasmid sentence names only the V2 receptor)
T3 sequence (P30559 1-389): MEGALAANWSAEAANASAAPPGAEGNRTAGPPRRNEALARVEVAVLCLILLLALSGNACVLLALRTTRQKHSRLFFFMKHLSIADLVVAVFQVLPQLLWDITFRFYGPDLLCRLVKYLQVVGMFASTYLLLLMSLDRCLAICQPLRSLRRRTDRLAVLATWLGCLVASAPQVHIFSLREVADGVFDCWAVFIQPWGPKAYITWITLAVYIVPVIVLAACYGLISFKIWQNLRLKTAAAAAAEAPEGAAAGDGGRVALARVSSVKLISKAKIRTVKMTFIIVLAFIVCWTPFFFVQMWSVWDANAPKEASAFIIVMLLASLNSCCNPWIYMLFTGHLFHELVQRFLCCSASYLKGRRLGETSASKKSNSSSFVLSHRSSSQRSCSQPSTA
Description: as §1, §2

[5] = test system: cAMP accumulation; assay: cAMP accumulation functional assay (agonist and antagonist mode); assay type: cell-based; remark: listed apart in the source
[6] = cell incubation with fluorescent compound at a concentration of 100-fold Ki

| Molecule | cyclic adenosine monophosphate (cAMP) accumulation (intrinsic agonist activity) [1, 6] | inhibition of AVP-induced cAMP accumulation ([1]; dose-dependent, antagonist mode) | Kd [2] [nM] | Kd [3] [nM] | Kd [4] [nM] | EC50 ([5]; cAMP accumulation, agonist potency, read-out: Kact) [nM] | cyclic adenosine monophosphate (cAMP) accumulation (intrinsic agonist activity) [5, 6] |
| --- | --- | --- | --- | --- | --- | --- | --- |
| CCN1C(=CC=CC=CC2=[N+](CC)c3ccc(S(=O)(=O)[O-])cc3C2(C)C)C(C)(CCCC(=O)NCCOCCN2CCN(CCCCCCOc3cccc(C)c3-n3c(C)nnc3-c3ccc(-c4ccccc4)cc3)CC2)c2cc(S(=O)(=O)O)ccc21 (stereo not shown) [Compound 21] | No significant increase in accumulation of second messengers | fully inhibited | 6 ± 2 | > 1000 | 7 ± 2 | – | – |
| CCN1C(=CC=CC=CC2=[N+](CC)c3ccc(S(=O)(=O)[O-])cc3C2(C)C)C(C)(CCCC(=O)NCCOCCOCCOCCN2CCN(CCCCCCOc3cccc(C)c3-n3c(C)nnc3-c3ccc(-c4ccccc4)cc3)CC2)c2cc(S(=O)(=O)O)ccc21 (stereo not shown) [Compound 22] | – | – | 10 ± 2 | > 1000 | 11 ± 2 | – | – |
| arginine vasopressin [AVP] | – | – | – | – | – | 0.29 | full agonist properties |
